{
  "source": "paper PMC7481357",
  "about": "“N-terminal Myristoylation Enhanced the Antimicrobial Activity of Antimicrobial Peptide PMAP-36PW” (Frontiers in Cellular and Infection Microbiology, 2020)",
  "key": {"[1]": {"system": "L. monocytogenes CICC 21634", "assay": "Inhibition zone assay (disk diffusion)", "type": "cell-based, Listeria monocytogenes", "set-up": "key: +, means the peptide has antibacterial activity", "conditions": "disk 10 μg peptide, 18 h at 37°C, * P < 0.05, ** P < 0.01 vs PMAP-36PW", "method": "(§1) The inhibition zone assay was performed through the disk diffusion to evaluate the antimicrobial activity of Myr-36PW in vitro (Dunne et al., [2017]). The four above-mentioned bacterial strains were used as experimental strains, with L. monocytogenes CICC 21634 cultured in BHI medium, and P. aeruginosa GIM 1.551 cultured in TSB medium. The bacterial cells were cultured for 12 h at 37°C in the appropriate medium, and the bacterial cell suspension was spread on LB agar. The disks containing 10 μg of peptides (1 μg/μL) were attached to the solid medium and incubated at 37°C for 18 h. Finally the diameter of the inhibition zone was measured."}, "S. typhimurium SL 1344": {"system": "S. typhimurium SL 1344", "assay": "Inhibition zone assay (disk diffusion)", "type": "cell-based, Salmonella typhimurium", "set-up": "key: +, means the peptide has antibacterial activity", "conditions": "disk 10 μg peptide, 18 h at 37°C, * P < 0.05, ** P < 0.01 vs PMAP-36PW", "method": "as §1"}, "[2]": {"system": "S. aureus ATCC 25923 and P. aeruginosa GIM 1.551", "assay": "Thermal stability testing (boiling, then inhibition zone assay)", "type": "cell-based, Staphylococcus aureus; Pseudomonas aeruginosa", "conditions": "boiled 120 min, 10 μg peptide, n = 5", "method": "For thermal stability analysis, the Myr-36PW and peptides were boiled for 10, 20, 30, 40, 50, 60, 90, and 120 min as reported (Ebbensgaard et al., [2015]) with unboiled peptides as controls. Inhibition zone assay was performed against S. aureus ATCC 25923 and P. aeruginosa GIM 1.551. The inhibition zone diameters of peptides (10 μg, 1 μg/μL) were measured after incubation for 18 h at 37°C, and the inhibition curve was drawn.\nFigure 3 Thermal stability determination of Myr-36PW by boiling. Thermal stability test of Myr-36PW and its analogs by boiling in different times (0, 10, 20, 30, 40, 50, 60, 90, and 120 min) via disk diffusion method. (A) (S. aureus ATCC 25923) and (B) (P. aeruginosa GIM 1.551) show the thermal stability curves of PMAP-36, PMAP-36PW, and Myr-36PW. The diameter of the standard disk is 6 mm. Data represent the mean ± SD (n = 5)."}, "[3]": {"system": "S. aureus ATCC 25923, S. typhimurium SL 1344, and P. aeruginosa GIM 1.551", "assay": "Biofilm inhibition assay (crystal violet)", "type": "cell-based", "conditions": "0.25–128 μg/mL, 24 h at 37°C, crystal violet OD 620 nm; n = 5", "method": "The biofilm-inhibiting ability of Myr-36PW was evaluated against S. aureus ATCC 25923, S. typhimurium SL 1344, and P. aeruginosa GIM 1.551 by using crystal violet dye (Chen et al., [2018]; de Breij et al., [2018]). Overnight cultured strains in TSB medium were diluted to 1 × 10^6 CFU/mL, 100 μL of bacterial suspension with 100 μL of different concentration of peptides (0.25–128 μg/mL) was added into a 96-well plate. Bacterial suspension without peptides was used the negative control. After incubation for 24 h at 37°C, the supernatant weas discarded, and the biofilm was gently washed with PBS, fixed in methanol for 20 min, stained with 0.1% (w/v) crystal violet for 10 min, and finally removed. After washing with PBS, 95% ethanol was added into wells, and the optical density (OD) was measured at 620 nm.\nFigure 6 Biofilm inhibition and eradication of Myr-36PW. (A–C) Inhibition of biofilm formation by Myr-36PW. (D) Eradication of preformed biofilm by Myr-36PW. (E) Killing effect of Myr-36PW against biofilm bacteria. Inhibition rate % = [1 – OD620 nm(peptides)/OD620 nm(bacteria)] × 100%. Biofilm mass % = OD620 nm(peptides)/OD620 nm(control) × 100%. The control group was bacterial culture without peptides. Data represent the mean ± SD (n = 5)."}, "P. aeruginosa GIM 1.551": {"system": "P. aeruginosa GIM 1.551", "assay": "Pneumonia (lung infection) model", "type": "in vivo, BALB/c mice", "conditions": "intranasal 40 μL, 1 μg/μL, once a day for 3 days", "method": "A pneumonia model in vivo was established as previously reported, with minor modification (Cortés et al., [2002]; Aoki et al., [2009]; Shi et al., [2018]). A total of 120 mice were randomly divided into two experimental models, one was intranasal inoculation of S. aureus ATCC 25923 (8.3 × 10^9 CFU/mL, 50 μL), and the other was intranasal inoculation of P. aeruginosa GIM 1.551 (4.5 × 10^10 CFU/mL, 50 μL). In the S. aureus ATCC 25923 model, 60 mice were divided into the following six groups of 10 mice each: no infection and treatment was used as a blank control, those with intranasal administration of PBS (40 μL) as the negative control group, those administered with benzylpenicillin potassium (40 μL, 1 μg/μL) as the positive control group, and the remaining three corresponded to Myr-36PW (40 μL, 1 μg/μL), PMAP-36PW (40 μL, 1 μg/μL), and PMAP-36 groups (40 μL, 1 μg/μL). The procedure for P. aeruginosa GIM 1.551 model is the same as for S. aureus ATCC 25923 model, except for the use of ampicillin sodium as the positive control. After 4 h post-inoculation, treatment was initiated, once a day for 3 days. The mice were sacrificed 24 h after the treatment. Changes in the appearance of lung tissues were observed, and lung tissues were removed aseptically from the mice. Half of the removed lung tissues were gently fixed in buffered formaldehyde solution for histopathological assessment by hematoxylin and eosin (H&E) staining. Pathological changes were scored to provide individual therapeutic status as described previously (Lei et al., [2018]). The remaining lung tissues were added with 1 mL of PBS, homogenized, and serially diluted. Bacterial CFU counts were determined.\nFigure 8 Therapeutic effect for pneumonia by Myr-36PW in vivo. Mice were injected with S. aureus ATCC 25923 or P. aeruginosa GIM 1.551 to form pneumonia, and lungs (n = 5) in each group were collected on day 4 after intranasal bacterial inoculation. (A) Morphological changes of lung tissues. (B) Representative histopathological images of processed lung section with hematoxylin and eosin (H&E) staining. Images are presented at a magnification of 20×. a: inflammatory cell infiltration. b: the alveolar wall is thickened. c: alveolar wall congestion or alveolar hemorrhage. (C,D) Pathological scores of the lung sections. Scoring standard: 1 indicated no pathology, 2 indicated local pulmonary congestion and inflammatory cell infiltration, 3 indicated pulmonary congestion and a large number of inflammatory cell infiltration, affecting <20% of the section, 4 indicated pulmonary congestion and a large number of inflammatory cell infiltration, affecting 20–50% of the section, and 5 indicated pulmonary congestion and a large number of inflammatory cell infiltration, affecting >50% of the section. (E,F) Bacterial CFU in lung homogenate. BP is benzylpenicillin potassium, AS is ampicillin sodium. Data represent the mean ± SD of five individual experiments."}},
  "note": "Residues, ends and D or L forms follow the SMILES beside them. *: point of attachment. Myristoyl = CCCCCCCCCCCCCC(=O)*",
  "data": [
    {"smiles": "CCCCCCCCCCCCCC(=O)NCC(=O)NCC(=O)N[C@@H](CCCNC(=N)N)C(=O)N[C@@H](Cc1ccccc1)C(=O)N[C@@H](CCCNC(=N)N)C(=O)N[C@@H](CCCNC(=N)N)C(=O)N[C@@H](CC(C)C)C(=O)N[C@@H](CCCNC(=N)N)C(=O)N[C@@H](CCCCN)C(=O)N[C@@H](CCCCN)C(=O)N[C@H](C(=O)N[C@@H](CCCNC(=N)N)C(=O)N[C@@H](CCCCN)C(=O)N[C@@H](CCCNC(=N)N)C(=O)N[C@@H](CC(C)C)C(=O)N[C@@H](CCCCN)C(=O)N[C@@H](CCCCN)C(=O)N[C@H](C(=O)NCC(=O)N[C@@H](CCCCN)C(=O)N[C@H](C(=O)N[C@@H](CC(C)C)C(=O)N[C@@H](CCCCN)C(=O)N[C@@H](Cc1c[nH]c2ccccc12)C(=O)N[C@H](C(=O)N[C@@H](Cc1c[nH]c2ccccc12)C(=O)N[C@@H](Cc1c[nH]c2ccccc12)C(=O)N[C@H](C(=O)N[C@H](C(=O)NCC(=O)N[C@@H](CO)C(=O)N[C@H](C(=O)N1CCC[C@H]1C(=O)N[C@@H](CC(C)C)C(=O)NCC(=O)N[C@@H](CS)C(=O)NCC(=O)O)[C@@H](C)CC)C(C)C)[C@@H](C)CC)[C@@H](C)CC)C(C)C)[C@@H](C)CC)[C@@H](C)O", "note": "[Myr-36PW] (Myristoyl-GGRFRRLRKKTRKRLKKIGKVLKWIWWIVGSIPLGCG-OH; C-terminus assumed)", "values": [
      {"measurement": "In vitro antibacterial activity (disk diffusion)", "setting": "[1]", "value": "+**"},
      {"measurement": "In vitro antibacterial activity (disk diffusion)", "setting": "S. typhimurium SL 1344", "value": "+*"},
      {"measurement": "Antimicrobial activity after boiling (thermal stability)", "setting": "[2]", "value": "retaining high bacterial inhibition"},
      {"measurement": "Inhibition of biofilm formation", "setting": "[3]", "value": "biofilm inhibition against the tested bacteria in a concentration-dependent manner"},
      {"measurement": "Lung histopathology (H&E)", "setting": "P. aeruginosa GIM 1.551", "value": "a complete alveolar structure, reduced blood stasis, and large reduction in inflammatory cells"},
      {"measurement": "Bacterial CFU in lung homogenate", "setting": "P. aeruginosa GIM 1.551; n = 5", "value": "decreased the P. aeruginosa GIM 1.551 CFU level compared with the PMAP-36PW group (P < 0.05)"},
      {"measurement": "Pathological scores of the lung sections", "setting": "P. aeruginosa GIM 1.551; n = 5", "value": "lower scores than PMAP-36PW group (P < 0.05)"}
    ]}
  ]
}
